Data reported in US8609649B2, “Compositions and methods for the diagnosis, treatment, and prevention of amyotrophic lateral sclerosis and related neurological diseases” (Brandeis University, priority 2007, dated 2013).
Each block holds one compound with its values, some of them ahead of it.

Tests used:
diabetic rats = details: cited from earlier work
[1] = cited from earlier work
cultured motor neurons [2] = experiment: Viability of motor neurons microinjected with plasmid encoding SOD-1 variants; format: cell-based, mouse; details: motor neurons expressing the SOD-1 variant, 10 days of observation, linear curve fit
Source text: (§1) Dissociation of spinal cord-dorsal root ganglia from embryonic day 13 CD 1 mice (Charles River Laboratories, Wilmington, Mass.), plating on poly-D-lysine-coated coverslips, culture media, and identification of motor neurons were as previously described. Roy, J., Minotti, S., Dong, L., Figlewicz, D. A., and Durham, H. D. (1998) J. Neurosci. 18, 9673-9684. Cultures were used 3-6 weeks after plating.
(§2) Subcloning of SOD-1G93A and SOD-1 wt cDNAs into the BamHI/HindIII sites of pcDNA3 (Invitrogen) was performed previously using cDNAs provided by Dr. Denise Figlewicz (University of Michigan, Ann Arbor, Mich.). Wang, J., Xu, G., and Borchelt, D. R. (2002) Neurobiol. Dis. 9, 139-148. Trp 4 Phe (W32F) mutations were created by site-specific mutagenesis of SOD-1 G93A and SOD-1 wt (TOP Gene Technologies, Quebec, Canada), producing SOD-1 W32F/G93A and SOD-1 W32F mutants, respectively. Intranuclear microinjection of plasmids was used to express SOD-1 constructs in motor neurons and to assess their effects on the survival and formation of inclusions as previously described Durham, H. D., Roy, J., Dong, L., and Figlewicz, D. A. (1997) J. Neuropathol. Exp. Neurol. 56, 523-530.
For viability experiments, motor neurons containing the co-injected fluorescent marker were counted daily under epifluorescence microscopy beginning 24 h post-microinjection. The number of motor neurons was expressed as a percentage of those present at 24 h to exclude those dying from injury during microinjection. The morphology of each cell was also evaluated by phase microscopy. All experiments involved a minimum of six cultures per condition with 20-80 motor neurons (average of 40) analyzed per culture. All experimental groups were analyzed simultaneously using cultures from the same batch, but each set of conditions was assessed for reproducibility in more than one culture batch. For viability experiments, injectates were coded by an independent researcher, and cell counts for viability were carried out blind to the identity of the experimental condition. Rates of cell death were calculated by a linear curve fit of the data (see FIG. 11) and are expressed as the percentage of death/day. The lowest observed linear regression r2 value was 0.94, and the average value was 0.96.
For the survival assays, statistical significance was determined using analysis of variance between groups (SigmaStat, Systat Software, Inc., Point Richmond, Calif.). Significance was established at p less than or equal to 0.05. Data for percentage of motor neurons with inclusions were tested for normal distribution and then compared using a one-tailed, two-sample t test for equal means under the assumption of unequal variance. A null hypothesis of equal means was rejected when p is less than or equal to 0.05.

[3] = humans; cited from earlier work
mice = details: cited from earlier work
AGE formation = details: in vitro; cited from earlier work
SOD-1 Cys111 = SOD-1 Cys111 (Homo sapiens, UniProt P00441); experiment: Intersubunit crosslinking of SOD-1; format: biochemical; details: FIG. 16
Chain of SOD-1 Cys111 (P00441 2-154 limits assumed): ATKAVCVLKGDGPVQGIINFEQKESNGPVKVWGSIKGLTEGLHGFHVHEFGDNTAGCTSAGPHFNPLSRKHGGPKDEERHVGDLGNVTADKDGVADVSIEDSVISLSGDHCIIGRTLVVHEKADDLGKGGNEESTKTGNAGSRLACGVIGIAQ

[4] = test system: humans with systolic hypertension and moderately severe diastolic heart failure; details: 16 weeks, 23 humans; cited from earlier work
[5] = test system: diabetic hyperlipidemic mice; details: cited from earlier work
hypertensive subjects = details: 93 hypertensive subjects age greater than 50 years, compared with placebo; cited from earlier work
proteasome = experiment: Proteasome activity in SOD-1-expressing stably transfected NIH/3T3 cell lines; format: cell-based; details: NIH/3T3 cell lines expressing the SOD-1 variant
Source text: Therefore, one aspect of the invention relates to monitoring proteasome activity to screen for potential ALS therapeutic compounds. FIG. 2 illustrates the results of using SOD-1 expressing cells (eG93A SOD-1 expressing clones; wild-type SOD-1 expressing clones; and […] G93A SOD-1 expressing clones) for said purpose. In certain embodiments, the assay involves administration of different concentrations of a given compound to G93A- and wild-type SOD-1 cell lines, and assaying proteasome activity. Successful compounds, in analogy to […]/G93A double mutant (FIG. 2), will relieve G93A SOD-1 associated proteasome inhibition. […] With successful hits, SOD-1 protein can be immunopurified from cell cultures to determine if there is any direct chemical bonding to SOD-1. pcDNA-3 vector with wild-type SOD-1, G93A SOD-1, […] SOD-1, […] G93A SOD-1 cDNA sequence were prepared by standard site-directed mutagenesis techniques. NIH/3T3 cells were maintained in Dulbecco's modified Eagle's medium (ATCC, Mannassas, Va.) supplemented with 10% newborn calf serum (Invitrogen, Carlsbad, Calif.). Cells were transfected with the plasmids using Lipofectamine 2000 (Invitrogen, Carlsbad, Calif.). A mock transfection was performed and cells were transfected under the same conditions but using either empty pcDNA-3 expression vector or no vector (to test the efficiency of selection). […]

cultured motor neurons [6] = experiment: SOD-1-positive cytoplasmic inclusions in microinjected motor neurons; format: cell-based, mouse
Source text: as §1
as §2, with “523-530. […]” for “523-530.”
For the survival assays, statistical significance was determined using analysis of variance between groups (SigmaStat, Systat Software, Inc., Point Richmond, Calif.). […]

[7] = 12 weeks therapy, diabetic hypertensive rats

Compound: N=C(N)NN [Aminoguanidine]
- nephropathy, retinopathy, and vessel elasticity (diabetic rats; diabetic rats): improve
- incidence of glomerulonephritis ([1]; higher dose): increased incidence
- proteinuria ([1]; lower dose, P<0.001): equally effective
- retinopathy progression ([1]; lower dose, P=0.03): preventing retinopathy progression
- serious side effects ([1]; lower dose): free of serious side effects

Compound: SOD-1^wt: wild-type human copper/zinc superoxide dismutase
- rate of death of motor neurons (cultured motor neurons [2]): 3.0 %/day

Compound: CCC[C@H](N[C@@H](C)C(=O)N1[C@H](C(=O)O)C[C@@H]2CCCC[C@@H]21)C(=O)OCC [perindopril]
- RAGE levels [3]: decreased RAGE levels
- atherosclerosis (mice): inhibited atherosclerosis

Compound: CN(C)C(=N)N=C(N)N [Metformin]
- AGE formation (AGE formation): prevent AGE formation

Compound: CCCCC(=O)N(Cc1ccc(-c2ccccc2-c2nnn[nH]2)cc1)[C@H](C(=O)O)C(C)C [valsartan]
- AGE formation (AGE formation): effective in vitro at decreasing AGE formation

- intersubunit crosslinking of SOD-1 Cys111 (SOD-1 Cys111): intersubunit crosslinking
Compound: C=CS(=O)(=O)CCCCCCS(=O)(=O)C=C [HBVS]

Compound: CCCCC1=NC2(CCCC2)C(=O)N1Cc1ccc(-c2ccccc2-c2nnn[nH]2)cc1 [irbesartan]
- AGE formation (AGE formation): effective in vitro at decreasing AGE formation
- vascular inflammation [3]: decreased vascular inflammation

- intersubunit crosslinking of SOD-1 Cys111 (SOD-1 Cys111): intersubunit crosslinking
Compound: O=C1C=CC(=O)N1CCSSCCN1C(=O)C=CC1=O [DTME]

Compound: Cc1sc[n+](CC(=O)c2ccccc2)c1C.[Cl-] [ALT-711, alagebrium chloride]
- left ventricular mass, left ventricular filling, patient ratings of quality of life [4]: decreased left ventricular mass, improved left ventricular filling, and improved patient ratings of quality of life
- levels of AGEs, RAGE expression, diabetic nephropathy, myocardial stiffness (diabetic rats; diabetic rats): decrease
- atherosclerosis, cholesterol and systolic blood pressure [5]: attenuated atherosclerosis and decreased cholesterol and systolic blood pressure
- pulse pressure and arterial stiffness (hypertensive subjects): significant reduction

Compound: O=C(C[n+]1ccsc1)c1ccccc1.[Br-] [N-phenacylthiazolium bromide]
- AGEs (diabetic rats; diabetic rat models): decrease AGEs
- nephropathy as measured by proteinuria (diabetic rats; diabetic rat models): has not decreased nephropathy

Compound: SOD-1^G93A: disease-causing mutant copper/zinc superoxide dismutase with the G93A mutation
- proteasome activity (proteasome): near complete inhibition
- rate of death of motor neurons (cultured motor neurons [2]): 6.8 %/day

Compound: O=C(O)CN1C[C@@H](c2cccs2)SC[C@H](N[C@@H](CCc2ccccc2)C(=O)O)C1=O [temocaprilat]
- AGE formation (AGE formation): effective in vitro at decreasing AGE formation

Compound: SOD-1^W32F/G93A: SOD-1 with the double mutation W32F and G93A
- percentage of motor neurons with SOD-1 inclusions (cultured motor neurons [6]; days 5 and 7, versus SOD-1G93A): No significant difference
- percentage of motor neurons with SOD-1 inclusions (cultured motor neurons [6]; post-microinjection day 3, versus SOD-1G93A, p<0.005): significantly lower proportion
- rate of death of motor neurons (cultured motor neurons [2]): 3.6 %/day

Compound: SOD-1^W32F: SOD-1wt with Trp-32 replaced with Phe
- rate of death of motor neurons (cultured motor neurons [2]): 4.3 %/day

Compound: CCCc1nc2c(C)cc(-c3nc4ccccc4n3C)cc2n1Cc1ccc(-c2ccccc2C(=O)O)cc1 [telmisartan]
- AGE formation (AGE formation): effective in vitro at decreasing AGE formation

Compound: CC(=O)NCCNC(=N)NN.Cl [ALT-946, N-(2-acetamidoethyl)hydrazinecarboximidamide hydrochloride]
- decrease of albuminuria compared with aminoguanidine therapy (diabetic rats; [7]): 250%
- renal AGEs by histologic analysis (diabetic rats; [7]): reduce renal AGEs
- albuminuria (diabetic rats; rat model, used at the onset of diabetes and initiated after 16 weeks of diabetes): reduced albuminuria

Compound: CCCCc1nc(Cl)c(CO)n1Cc1ccc(-c2ccccc2-c2nn[nH]n2)cc1 [losartan]
- AGE formation (AGE formation): effective in vitro at decreasing AGE formation

Compound: Cc1ncc(CO)c(CN)c1O [Pyridoxamine]
- cholesterol levels (diabetic rats; compared with aminoguanidine): lowered cholesterol levels more than aminoguanidine
- diabetic nephropathy (diabetic rats; compared with aminoguanidine): inhibited diabetic nephropathy equally to aminoguanidine
- AGE formation (diabetic rats; nondiabetic and diabetic rats): retarded AGE formation
- weight (diabetic rats; nondiabetic and diabetic rats): mild weight loss
